Measured values as given in patent US11203633B2, “Polynucleotides encoding antibodies or antigen binding fragments thereof that bind pseudomonas perv” (priority 2011, dated 2021).

Tested on: P. aeruginosa strains (PAO1, 33356, 6294, 6077, 6206, PA103A)
Experiment: Acute pneumonia model in mice, survival
Assay type: in vivo, Pseudomonas aeruginosa
Details: for protection from challenge: 45 and 15 mg/kg; for survival compared to controls: 45, 15, 5 mg/kg 24 hours before infection
Experimental: Antibodies or PBS were administered 24 hours before infection in each model. P. aeruginosa acute pneumonia, keratitis, and thermal injury infection models were performed as described (DiGiandomenico, A., et al., Proc Natl Acad Sci USA 104, 4624-4629 (2007)), with modifications. In the acute pneumonia model, BALB/c mice (The Jackson Laboratory) were infected with P. aeruginosa strains suspended in a 0.05 ml inoculum. In the thermal injury model, CF-1 mice (Charles River) received a 10% total body surface area burn with a metal brand heated to 92° C. for 10 seconds. Animals were infected subcutaneously with P. aeruginosa strain 6077 at the indicated dose. For organ burden experiments, acute pneumonia was induced in mice followed by harvesting of lungs, spleens, and kidneys 24 hours post-infection for determination of CFU.
The in vivo effect of administration of an anti-PcrV antibodies was studied in mice using an acute pneumonia model. Groups of mice were treated with either increasing concentrations of the V2L2 antibody, a positive control anti-PcrV antibody (mAb166), or a negative control (R347), as shown in FIG. 13 (A-B). Groups of mice were also treated with either increasing concentrations of the V2L2 antibody, the PcrV antibody PcrV-02, or a negative control (R347), as shown in FIG. 13 (C-D). Twenty-four hours after treatment, all mice were infected with 5×10^7 CFU (C) Pseudomonas aeruginosa 6294 (06) or (D) PA103A (O11).
Groups of mice were treated with either increasing concentrations of the 11A6, 3G5 or V2L7, the same concentrations of 29D2, 1F3, 1E6, V2L2, LE10, SH3, 4A8, 2H3, or 21F1, increasing concentrations of the 29D2, increasing concentrations of the V2L2, the PcrV antibody PcrV-02, or a negative control (R347), as shown in FIG. 13 (E-H). Mice were injected intraperitoneally (IP) with mAbs 24 hours prior to intranasal infection with Pseudomonas strain 6077 (1×10^6 CFU/animal).

## Cam-003: anti-Psl human IgG1 monoclonal antibody; VH SEQ ID NO:1, VL SEQ ID NO:2
6077 1×10^6 CFU, 5 mg/kg, FIG. 6D
  survival vs. R347, Log-rank test P: 0.0001
6294 7×10^6 CFU, 5 mg/kg, FIG. 6C
  survival vs. R347, Log-rank test P: 0.0212
6294 7×10^6 CFU, 15 mg/kg, FIG. 6C
  survival vs. R347, Log-rank test P: 0.0019
6294 7×10^6 CFU, 45 mg/kg, FIG. 6C
  survival vs. R347, Log-rank test P: 0.0007
33356 3×10^7 CFU, 5 mg/kg, FIG. 6B
  survival vs. R347, Log-rank test P: 0.0373
33356 3×10^7 CFU, 15 mg/kg, FIG. 6B
  survival vs. R347, Log-rank test P: 0.0012
33356 3×10^7 CFU, 45 mg/kg, FIG. 6B
  survival vs. R347, Log-rank test P: 0.0012
PAO1 1.6×10^7 CFU, 5 mg/kg, FIG. 6A
  survival vs. R347, Log-rank test P: 0.0033
PAO1 1.6×10^7 CFU, 15 mg/kg, FIG. 6A
  survival vs. R347, Log-rank test P: 0.0003
Cytotoxic strain 6077, FIG. 6D
  protection from challenge: complete protection
Strain 6077, 5 mg/kg, FIG. 6D
  survival: 90%
Strain 6294, FIG. 6C
  survival compared to controls: significant concentration-dependent survival
Strain 33356, 5 mg/kg, FIG. 6B
  survival: 80%
Strain 33356, FIG. 6B
  protection from challenge: complete protection
Strain PAO1, FIG. 6A
  survival compared to controls: significant concentration-dependent survival
